How the values were obtained:
[1] = system: mitochondrial hexokinase of the VX2 tumor; assay: Hexokinase activity assay coupled to glucose-6-phosphate dehydrogenase; format: biochemical, rabbit; conditions: VX2 tumor mitochondria, cell free
Procedure: (§1) The freshly isolated liver or VX2 tumor tissues (15-20 g wet weight) was rinsed in 3 volumes of H-medium (210 mM D-mannitol, 70 mM sucrose, 2 mM Hepes, and 0.05% bovine albumin, pH 7.4) at 4° C. and minced with a razor blade as finely as possible. A 30% (V/V) suspension was made using ice-cold H-medium in a Potter-Elvehjem glass homogenizer (55 ml capacity), and homogenization was achieved by applying 4 complete up and down strokes through the suspension with a rotating (˜400 rpm), serrated, teflon pestle attached to a motor. To remove cell debris and nuclei, the resultant homogenate was diluted to twice the initial volume and centrifuged at 630×g for 8 minutes at 4° C. in a Sorvall RC-2B centrifuge using a GSA rotor. The supernatant was removed and then centrifuged at 6,800 g for 15 min under the same conditions. The resultant supernatant was saved and referred to here as the cytosolic faction. The pellet was resuspended in the initial volume of H-medium and centrifuged twice at 9,800×g for 15 min at 4° C. The washed pellet represents the mitochondrial fraction.
The assay coupled the glucose-6-phosphate formed in the hexokinase reaction to the glucose-6-phosphate dehydrogenase reaction. Here, NADP+, oxidizes glucose-6-phosphate to a g-lactone while becoming reduced to NADPH, thus allowing the formation of the latter to be monitored spectrophotometrically at 340 nm. […]

[2] = system: mitochondrial respiration of VX2 tumor mitochondria; assay: Mitochondrial respiration (oxygen consumption, Clark electrode); format: biochemical, rabbit; conditions: 1.2 mM; basal (succinate) and ADP stimulated rate
Procedure: as §1, with “The pellet was resuspended in the initial volume of H-medium and centrifuged twice at 9,800×g for 15 min at 4° C. The washed pellet represents the mitochondrial fraction.” left out
Oxygen consumption rates were measured polarographically using a Clark oxygen electrode inserted into a 2.5 ml chamber equipped with a magnetic stirrer. […] The loss of oxygen was monitored in a 2.1 ml system at 25° C. containing 1 mg mitochondria, 0.5 mM EDTA, 2.0 mM Hepes, 220 mM D-mannitol, 70 mM sucrose, 2.5 mM KPi, 2.6 mM MgCl2, and 0.5 mg/ml bovine albumin, and, where indicated, 7.8 mM succinate (respiratory substrate), and 0.24 mM ADP (ATP synthesis substrate). […]

[3] = system: VX2; assay: Caspase-3 activity, VX2; format: cell-based, rabbit; conditions: 1 mM for 3 hour
Procedure: Caspase-3 activity and reduced cell viability was also measured in cell lines (HepG2, THLE-2, and VX2 cell lines) following 3-bromopyruvate treatment (1 mM for 3 hour) (FIG. 6A). Caspase-3 activity increased in each cell line following treatment and cell viability decreased following treatment. An increase in caspase-3 activity indicated the mechanism of cell death is apoptotic. FIGS. 6 B and C show cell viability is reduced in each cell line with increasing 3-bromopyruvate concentration after 1 and 3 hours of treatment.

[4] = system: back adipose tissue (BAT); assay: FDG uptake after IP injection in non-tumor bearing rats; format: in vivo, rat
From the text: (§2) After having established the anti-glycolytic effect of 3-bromopyruvate in vitro, we designed a series of experiments to confirm this property in vivo. For this purpose, two different animal models, the Lewis rat mammary tumor model and the orthotopic VX2 rabbit liver cancer model were used. Since glucose uptake can be monitored using fluorine-labeled deoxyglucose (FDG), potential sites of decreased FDG uptake as a result of 3-bromopyruvate activity could be identified. The effects of intraperitonealy (IP) injected 3-bromopyruvate in non-tumor bearing rats were compared to those in tumor bearing rats. The tumors were derived from the rat mammary tumor (RMT) cell line and transplanted into the back adipose tissue of the rat and allowed to grow for 10 days. After having determined the maximum tolerated dose, all animals received two bolus doses (one hour apart) of 3-bromopyruvate injected IP. The FDG was injected 30 minutes after the first injection of 3-bromopyruvate and all animals were sacrificed 60 minutes after the FDG was injected. The tumors and all major organs were removed, weighed and analyzed in a gamma counter. […]

[5] = system: rat mammary tumor (RMT); assay: FDG uptake after IP injection in tumor bearing rats; format: in vivo
From the text: as §2

[6] = Survival analysis, treatment versus control group (Kaplan-Meier); format: in vivo, rabbit; conditions: 11 animals, control 18.6 days
From the text: FIG. 9 is a graph showing survival of untreated (control) versus 3-bromopyruvate treated animals.
The control group consisted of 10 animals and the treatment group consisted of 11 animals. The Kaplan-Meier method was used to estimate survival curves. […] The mean survival time in the control group is 18.6 days as compared to the treatment group, with 50.0 days.

[7] = system: VX2 tumor; assay: PET/CT imaging and histopathology after 1-hour intraarterial infusion; format: in vivo, rabbit
Procedure: To further confirm the tumor destruction using 3-bromopyruvate, Positron Emission Tomography (PET)/CT imaging was conducted in rabbits before and after a single 1-hour intraarterial (infusion) therapy with 3-bromopyruvate. […] Since 3-bromopyruvate acts extremely quickly, PET/CT images were obtained within 2 hours of therapy to examine the process of making a decision regarding immediate re-treatment. After the PET/CT images were obtained, the 2 rabbits were sacrificed, their liver explanted and submitted for histopathologic analysis. Various staining methods that the tumor was completely (100%) dead and that the mechanism of cell death was apoptotic, thus confirming the use of PET imaging in assessing tumor response.

[8] = two IP bolus doses one hour apart

O=C(O)C(=O)CBr [3-bromopyruvate]
concentration for complete inhibition of hexokinase activity [1]: 5 mM | inhibition of mitochondrial respiration [2]: completely inhibits | Caspase-3 activity [3]: increased | FDG uptake in other organs ([4]; two IP bolus doses): affected no other organs | decrease in FDG uptake (percentage of injected dose per gram of tissue) in back adipose tissue [4, 8]: 10 fold | FDG uptake in all other organs ([5]; two IP bolus doses): unaffected | decrease in FDG uptake in the tumor [5, 8]: 50% | mean survival time [6]: 50.0 days | tumor activity on post-treatment PET/CT scans ([7]; 2 hours after single 1-hour intraarterial infusion): complete disappearance of tumor activity | tumor death by histopathology ([7]; after single 1-hour intraarterial infusion): 100% | mechanism of cell death ([7]; histopathologic staining): apoptotic
